Measurements taken from patent US12594255B2, “Lipids with odd number of carbon atoms and their use as pharmaceutical composition or nutritional supplement” (SunRegen Healthcare AG, priority 2016, dated 2026).

Assays:
Assay type in all cases: cell-based
[1] = test system: mouse primary cortical neurons challenged with Aβ1-42 oligomers (AβO); test: AβO-induced neurotoxicity, 48-h pre-incubation with test item, MTT assay; conditions: 48 h pre-incubation, then 1 μM AβO 24 h
Method: Mouse primary cortical neurons were pre-incubated for 48 h with vehicle, 0.05 μM DHA (used as positive control) or different concentrations of Compound C. Then, cortical neurons were treated for 24 h with vehicle (FIG. 1 left) or 1 μM AβO ([…]) and cell viability was determined using the MTT assay (n=3 determinations per condition, 1 independent experiment), Data are represented as % of vehicle control (Mean*SD). […]
(§1) Cortical neurons from embryonic day 16-17 are prepared from C57BL6/J mouse fetuses. In brief, dissociated cortical cells were plated (50.000 cells/well) in 48-well plates pre-coated with 1.5 μg/mL polyornithine (Sigma). Cells were cultured in a chemically defined Dulbecco's modified eagle's/F12 medium free of serum and supplemented with hormones, proteins and salts. Cultures were kept at 35° C. in a humidified 6% CO2 atmosphere. Mouse cortical neurons were exposed for 24 h to 1.0 μM AβO after a 48-h pre-incubation with vehicle or different concentrations of Compound C. The AβO-induced neurotoxicity was evaluated using the MTT assay.
All treatments were done in triplicates in 48-well plates. Cells were incubated with vehicle or 1 μM AβO in the absence or presence of different lipids at the indicated final concentrations) added at 48 hours before ADO. Cells were incubated with AβO for 24 h in a final volume of 140 μL per well.
For positive controls, cells are treated similarly (48 hours before AβO) in the presence of 0.05 μM DHA.
Following AβO-treatment, cell viability was measured using the MTT assay. Briefly, cells were incubated at 35° C. for 1 h with MTT (Sigma, Cat #M2128-10G. Lot #MKBH7489V). For that purpose, 14 μL of 5 mg/mL MITT (solubilized in PBS) were added in each well. After incubation, medium was removed and cells were lyzed with 150 μL DMSO for 10 minutes and protected from light. After complete solubilization of formazan, absorbance at 570 nm was recorded.
as §1, with “cells are” for “cells were”, “Cells are” for “Cells were”, “Cultures are” for “Cultures were”, “of herb B extracts.” for “of Compound C.”, “assay. […]” for “assay.”

[2] = Cell viability of neurons pre-incubated 48 h with test item only (no AβO), MTT assay; conditions: C57BL6/J, mouse, mouse primary cortical neurons, 1 nM compound C only, 48 h pre-incubation
Method: (§2) Mouse primary cortical neurons were pre-incubated for 48 h with vehicle, 0.05 μM DHA (used as positive control) or different concentrations of Compound C. Then, cortical neurons were treated for 24 h with vehicle (FIG. 1 left) or 1 μM AβO (FIG. 2 right) and cell viability was determined using the MTT assay (n=3 determinations per condition, 1 independent experiment), Data are represented as % of vehicle control (Mean*SD).
as §2, with “of Herb B Extracts.” for “of Compound C.”, “(FIG. 10” for “(FIG. 1”, “(FIG. 11” for “(FIG. 2”, “control (Mean±SD).” for “control (Mean*SD).”
Cortical neurons from embryonic day 16-17 are prepared from C57BL6/J mouse fetuses. In brief, dissociated cortical cells were plated (50.000 cells/well) in 48-well plates pre-coated with 1.5 μg/mL polyornithine (Sigma). […] The AβO-induced neurotoxicity was evaluated using the MTT assay.
Cortical neurons from embryonic day 16-17 are prepared from C57BL6/J mouse fetuses. […] The AβO-induced neurotoxicity was evaluated using the MTT assay. […]

[3] = test system: mouse primary cortical neurons challenged with camptothecin; test: Camptothecin-induced neuronal death, test item added 48 hours before camptothecin; conditions: for neuroprotective and anti-apoptotic effects: 48 h before 1 μM camptothecin; for cell viability: 48 h before 1 μM camptothecin 24 h
Method: (§3) Mouse primary neurons were incubated with vehicle or toxins in the absence or presence of different concentrations of compound C added 48 hours before toxin's challenge. After the addition of toxins, cells were further incubated for 24 h.
as §3, with “Herb B” for “compound C”, “camptothecin's” for “toxin's”, “Camptothecin,” for “toxins,”, “h. Data are represented as % of vehicle control (Mean±SD).” for “h.”
The neuro-protective effects of different concentrations of compound C was investigated using mouse primary cortical neurons challenged with camptothecin, which is a cytotoxic quinoline alkaloid which inhibits the DNA enzyme topoisomerase I (topo I).
(§4) Mouse primary neurons were incubated with vehicle or toxins in the absence or presence of different concentrations of compound C added 48 hours before toxin's challenge. After the addition of 1 μM camptothecin, cells were further incubated for 24 h in a final volume of 140 μL per well.
as §4, with “Cells” for “Mouse primary neurons”, “toxins (at the indicated final concentrations described in plate-layout below)” for “toxins”

## CCCCCCCCCCCCCCC(=O)OCC(COC(=O)CCCCCCCCCCCCCC)OC(=O)CCCCCCCCCCCCCC [Compound C, tripentadecanoin]
[1]; Compound C 320 nM
  maximal neuroprotective effect: 100%
[1]; Mus musculus, Primary cortical neuron, expected around, read-out: EC50 effect (neuroprotection)
  EC50: ~66 nM
[1]; Mus musculus, Primary cortical neuron, Compound C 320 nM, read-out: cell viability
  viability at 0.32 µM: 112 ± 1.5%
[2]
  viability at 48 h, 0.001 µM: 117 ± 3.7%
[3]; 10 nM
  neuroprotective and anti-apoptotic effects: 37.3%
  cell viability: 73.5±1.5 % of control
[3]; 100 nM
  neuroprotective and anti-apoptotic effects: 37.2%
  cell viability: 73.4±5.9 % of control
